Laboratory results from ChEMBL document CHEMBL1137091, “Carbonic anhydrase inhibitors. Design of selective, membrane-impermeant inhibitors targeting the human tumor-associated isozyme IX” (J Med Chem, 2004).

Tests used:
[1] = species on record: Homo sapiens; assay: Percentage inhibition for the inhibition of Cl-/NO3- exchange measured for AE1 transfected cells (before and after treatment with CAI); format: functional
[2] = species on record: Homo sapiens; assay: Inhibitory concentration for the half maximal inhibition of Cl-/NO3- exchange measured for AE1 transfected cells (before and after treatment with CAI); format: functional
[3] = species on record: Homo sapiens; assay: Relative transport activity for the inhibition of Cl-/NO3- exchange measured for AE1 transfected cells (before and after treatment with CAI); format: functional
[4] = target: Carbonic anhydrase 9 (Homo sapiens, UniProt Q16790)
Description: Inhibition constant evaluated for the inhibition of human CA IX (Carbonic anhydrase IX)

[5] = target: Carbonic anhydrase 2 (Homo sapiens, UniProt P00918)
Description: Inhibition constant evaluated for the inhibition of human CA II (Carbonic anhydrase II)

[6] = target: T1, Carbonic anhydrase 4 (Bos taurus, UniProt Q95323)
T1 sequence (Q95323 whole entry): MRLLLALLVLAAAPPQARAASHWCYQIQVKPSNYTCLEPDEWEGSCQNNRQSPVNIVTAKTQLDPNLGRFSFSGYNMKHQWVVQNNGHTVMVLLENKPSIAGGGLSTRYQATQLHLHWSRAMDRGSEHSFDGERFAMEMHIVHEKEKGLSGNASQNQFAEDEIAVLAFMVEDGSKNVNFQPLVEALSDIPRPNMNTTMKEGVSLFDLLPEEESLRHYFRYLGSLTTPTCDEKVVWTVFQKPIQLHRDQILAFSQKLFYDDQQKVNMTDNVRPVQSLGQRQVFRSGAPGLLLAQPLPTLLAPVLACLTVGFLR
Description: Inhibition constant evaluated for the inhibition of bovine CA IV (Carbonic anhydrase IV)

[7] = target: Carbonic anhydrase 1 (Homo sapiens, UniProt P00915)
Carbonic anhydrase 1, sequence (P00915 whole entry): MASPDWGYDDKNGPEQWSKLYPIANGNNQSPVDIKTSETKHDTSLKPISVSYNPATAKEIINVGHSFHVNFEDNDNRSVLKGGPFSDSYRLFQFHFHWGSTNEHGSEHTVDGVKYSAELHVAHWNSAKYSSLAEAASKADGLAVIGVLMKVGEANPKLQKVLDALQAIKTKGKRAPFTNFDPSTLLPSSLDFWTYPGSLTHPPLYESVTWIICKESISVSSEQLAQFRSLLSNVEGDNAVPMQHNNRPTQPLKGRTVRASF
Description: Inhibition constant evaluated for the inhibition of human CA I (Carbonic anhydrase I)

Row | SMILES | Inhibition [1] [%] | IC50 [2] [µM] | Activity [3] | Ki [4] [µM] | Ki [5] [µM] | Ki [6] [µM] | Ki [7] [µM]
1 | CCCCc1cc(-c2ccccc2)cc(CCCC)[n+]1-c1ccc(S(=O)(=O)Nc2nnc(S(N)(=O)=O)s2)cc1.[O-][Cl+3]([O-])([O-])[O-] | 34 | 1510 | 0.709 | – | – | – | –
2 | Cc1c2cc(c(C)[n+]1-c1ccc(S(=O)(=O)Nc3nnc(S(N)(=O)=O)s3)cc1)CCCCCCCCC2.[O-][Cl+3]([O-])([O-])[O-] | – | – | 1 | 0.012 | 0.00137 | 0.0046 | 0.003
3 | CCCc1cc(-c2ccccc2)cc(CCC)[n+]1-c1ccc(S(=O)(=O)Nc2nnc(S(N)(=O)=O)s2)cc1.[O-][Cl+3]([O-])([O-])[O-] | 32 | 126 | 0.651 | – | – | – | –
